Data as given in ChEMBL document CHEMBL4396913, “Synthesis and biological evaluation of hybrid quinolone-based quaternary ammonium antibacterial agents” (Eur J Med Chem, 2019).
In brackets after ≈: the same amount, converted by molar mass.

Legend:
[1] = test system: Staphylococcus epidermidis; experiment: Antibacterial activity against Staphylococcus epidermidis ATCC 14990 cultured in MH medium assessed as reduction in bacterial growth incubated for 48 hrs by microbroth dilution method; assay type: functional; conditions: ATCC 14990, 48 h
[2] = test system: Staphylococcus aureus; experiment: Bactericidal activity against methicillin resistant Staphylococcus aureus 6347 cultured in MH medium assessed as reduction in bacterial survival incubated for 48 hrs by microbroth dilution method; assay type: functional; conditions: Staphylococcus aureus, 6347, 48 h
[3] = test system: Bacillus spizizenii; experiment: Antibacterial activity against Bacillus subtilis ATCC 6633 cultured in MH medium assessed as reduction in bacterial growth incubated for 48 hrs by microbroth dilution method; assay type: functional; conditions: ATCC 6633, 48 h
[4] = test system: Escherichia coli; experiment: Bactericidal activity against Escherichia coli ATCC 8739 cultured in MH medium assessed as reduction in bacterial survival incubated for 48 hrs by microbroth dilution method; assay type: functional; conditions: ATCC 8739, 48 h
[5] = test system: Serratia marcescens; experiment: Bactericidal activity against Serratia marcescens ATCC 12795 cultured in MH medium assessed as reduction in bacterial survival incubated for 48 hrs by microbroth dilution method; assay type: functional; conditions: ATCC 12795, 48 h
[6] = test system: Proteus vulgaris; experiment: Bactericidal activity against Proteus vulgaris NCTC 4635 cultured in MH medium assessed as reduction in bacterial survival incubated for 48 hrs by microbroth dilution method; assay type: functional; conditions: NCTC 4635, 48 h
[7] = test system: Enterococcus hirae; experiment: Bactericidal activity against Enterococcus hirae ATCC 1052 cultured in BHI medium assessed as reduction in bacterial survival incubated for 48 hrs by microbroth dilution method; assay type: functional; conditions: ATCC 1052, 48 h
[8] = test system: Staphylococcus epidermidis; experiment: Bactericidal activity against Staphylococcus epidermidis ATCC 14990 cultured in MH medium assessed as reduction in bacterial survival incubated for 48 hrs by microbroth dilution method; assay type: functional; conditions: ATCC 14990, 48 h
[9] = test system: Staphylococcus aureus; experiment: Antibacterial activity against Staphylococcus aureus ATCC 6538 cultured in MH medium assessed as reduction in bacterial growth incubated for 48 hrs by microbroth dilution method; assay type: functional; conditions: ATCC 6538, 48 h
[10] = test system: Staphylococcus epidermidis; experiment: Antibacterial activity against methicillin resistant Staphylococcus epidermidis ATCC 13199 cultured in MH medium assessed as reduction in bacterial growth incubated for 48 hrs by microbroth dilution method; assay type: functional; conditions: ATCC 13199, 48 h
[11] = test system: Enterococcus hirae; experiment: Antibacterial activity against Enterococcus hirae ATCC 1052 cultured in BHI medium assessed as reduction in bacterial growth incubated for 48 hrs by microbroth dilution method; assay type: functional; conditions: ATCC 1052, 48 h
[12] = test system: Staphylococcus aureus; experiment: Bactericidal activity against Staphylococcus aureus ATCC 6538 cultured in MH medium assessed as reduction in bacterial survival incubated for 48 hrs by microbroth dilution method; assay type: functional; conditions: ATCC 6538, 48 h
[13] = Lipophilicity, log k of the compound at 100 ug/ml by micellar electrokinetic chromatography; assay type: physicochemical
[14] = test system: Pseudomonas aeruginosa; experiment: Antibacterial activity against Pseudomonas aeruginosa ATCC 9027 cultured in MH medium assessed as reduction in bacterial growth incubated for 48 hrs by microbroth dilution method; assay type: functional; conditions: ATCC 9027, 48 h
[15] = test system: Staphylococcus epidermidis; experiment: Bactericidal activity against methicillin resistant Staphylococcus epidermidis ATCC 13199 cultured in MH medium assessed as reduction in bacterial survival incubated for 48 hrs by microbroth dilution method; assay type: functional; conditions: ATCC 13199, 48 h
[16] = test system: Bacillus spizizenii; experiment: Bactericidal activity against Bacillus subtilis ATCC 6633 cultured in MH medium assessed as reduction in bacterial survival incubated for 48 hrs by microbroth dilution method; assay type: functional; conditions: ATCC 6633, 48 h
[17] = test system: Serratia marcescens; experiment: Antibacterial activity against Serratia marcescens ATCC 12795 cultured in MH medium assessed as reduction in bacterial growth incubated for 48 hrs by microbroth dilution method; assay type: functional; conditions: ATCC 12795, 48 h
[18] = test system: Staphylococcus aureus; experiment: Bactericidal activity against methicillin resistant Staphylococcus aureus N315 cultured in MH medium assessed as reduction in bacterial survival incubated for 48 hrs by microbroth dilution method; assay type: functional; conditions: N315, 48 h
[19] = test system: Streptococcus pneumoniae; experiment: Antibacterial activity against Streptococcus pneumoniae cultured in MH medium assessed as reduction in bacterial growth incubated for 48 hrs by microbroth dilution method; assay type: functional
[20] = test system: Proteus vulgaris; experiment: Resistance index, ratio of MIC for Proteus vulgaris NCTC 4635 measured after 5 dilution steps to MIC for Proteus vulgaris NCTC 4635 measured after 48 hrs incubation by microbroth dilution method; assay type: functional
[21] = test system: Pseudomonas aeruginosa; experiment: Bactericidal activity against Pseudomonas aeruginosa ATCC 9027 cultured in MH medium assessed as reduction in bacterial survival incubated for 48 hrs by microbroth dilution method; assay type: functional; conditions: ATCC 9027, 48 h
[22] = test system: Escherichia coli; experiment: Antibacterial activity against Escherichia coli ATCC 8739 cultured in MH medium assessed as reduction in bacterial growth incubated for 48 hrs by microbroth dilution method; assay type: functional; conditions: ATCC 8739, 48 h
[23] = test system: Proteus vulgaris; experiment: Antibacterial activity against Proteus vulgaris NCTC 4635 cultured in MH medium assessed as reduction in bacterial growth incubated for 48 hrs by microbroth dilution method; assay type: functional; conditions: NCTC 4635, 48 h
[24] = test system: Streptococcus pneumoniae; experiment: Bactericidal activity against Streptococcus pneumoniae cultured in MH medium assessed as reduction in bacterial survival incubated for 48 hrs by microbroth dilution method; assay type: functional
[25] = test system: Staphylococcus aureus; experiment: Antibacterial activity against methicillin resistant Staphylococcus aureus N315 cultured in MH medium assessed as reduction in bacterial growth incubated for 48 hrs by microbroth dilution method; assay type: functional; conditions: N315, 48 h
[26] = test system: Staphylococcus aureus; experiment: Antibacterial activity against methicillin resistant Staphylococcus aureus 6347 cultured in MH medium assessed as reduction in bacterial growth incubated for 48 hrs by microbroth dilution method; assay type: functional; conditions: Staphylococcus aureus, 6347, 48 h
[27] = test system: Escherichia coli; experiment: Antibacterial activity against […] Escherichia coli ATCC 8739 assessed as reduction in bacterial growth incubated for 48 hrs in presence of 50 ug/ml […], PAbetaN by microbroth dilution method; assay type: functional; conditions: ATCC 8739, 48 h
[28] = test system: HEK293; experiment: Cytotoxicity against human HEK293 cells assessed as changes in cell morphology upto 20 uM incubated for 72 hrs by MTT assay; assay type: cell-based; conditions: hek293, 72 h
[29] = test system: Staphylococcus epidermidis; experiment: Ratio of gatifloxacin resistance index to compound resistance index for methicillin resistant Staphylococcus epidermidis ATCC 13199 by microbroth dilution method; assay type: functional
[30] = test system: Proteus vulgaris; experiment: Antibacterial activity against Proteus vulgaris NCTC 4635 measured after 15 passages by microbroth dilution method; assay type: functional
[31] = test system: Proteus vulgaris; experiment: Resistance index, ratio of MIC for Proteus vulgaris NCTC 4635 measured after 15 passages to MIC for Proteus vulgaris NCTC 4635 measured after 48 hrs incubation by microbroth dilution method; assay type: functional
[32] = test system: HEK293; experiment: Cytotoxicity against human HEK293 cells assessed as cell viability upto 20 uM incubated for 72 hrs by MTT assay; assay type: cell-based; conditions: hek293, 72 h
[33] = test system: Escherichia coli; experiment: Bactericidal activity against […] Escherichia coli ATCC 8739 assessed as reduction in bacterial survival incubated for 48 hrs in presence of 50 ug/ml […], PAbetaN by microbroth dilution method; assay type: functional; conditions: ATCC 8739, 48 h

Question: With COc1c(N2CCNC(C)C2)c(F)cc2c(=O)c(C(=O)O)cn(C3CC3)c12 (configuration not stated) [GATIFLOXACIN] as the molecule, how does the MIC [1] read?
Answer: The MIC was 0.125 µg/mL (≈ 0.333 µM).

Question: And the MBC [2]?
Answer: The MBC was 0.125 µg/mL (≈ 0.333 µM).

Question: And the MIC [3]?
Answer: Its MIC is 0.032 µg/mL (≈ 0.0852 µM).

Question: And the MBC [4]?
Answer: Its MBC is 0.032 µg/mL (≈ 0.0852 µM).

Question: What about the MBC [5] of the same molecule?
Answer: The MBC was 0.5 µg/mL (≈ 1.33 µM).

Question: What about the MBC [6] of the same molecule?
Answer: The MBC was 0.008 µg/mL (≈ 0.0213 µM).

Question: What about the MBC [7] of the same molecule?
Answer: Its MBC is 16 µg/mL (≈ 42.6 µM).

Question: What about the MBC [8] of the same molecule?
Answer: Its MBC is 0.25 µg/mL (≈ 0.666 µM).

Question: What about the MIC [9] of the same molecule?
Answer: The MIC was 0.25 µg/mL (≈ 0.666 µM).

Question: What about the MIC [10] of the same molecule?
Answer: Its MIC is 0.063 µg/mL (≈ 0.168 µM).

Question: What about the MIC [11] of the same molecule?
Answer: The MIC was 8 µg/mL (≈ 21.3 µM).

Question: What about the MBC [12] of the same molecule?
Answer: The MBC was 0.25 µg/mL (≈ 0.666 µM).

Question: And the “log K” value [13]?
Answer: Its value is 0.101.

Question: What about the MIC [14] of the same molecule?
Answer: The MIC was 0.25 µg/mL (≈ 0.666 µM).

Question: And the MBC [15]?
Answer: Its MBC is 0.063 µg/mL (≈ 0.168 µM).

Question: And the MBC [16]?
Answer: Its MBC is 0.063 µg/mL (≈ 0.168 µM).

Question: And the MIC [17]?
Answer: The MIC was 0.25 µg/mL (≈ 0.666 µM).

Question: What about the MBC [18] of the same molecule?
Answer: The MBC was 0.125 µg/mL (≈ 0.333 µM).

Question: And the MIC [19]?
Answer: Its MIC is 1 µg/mL (≈ 2.66 µM).

Question: And the Ratio [20]?
Answer: Its Ratio is 32.

Question: And the MBC [21]?
Answer: The MBC was 0.25 µg/mL (≈ 0.666 µM).

Question: And the MIC [22]?
Answer: Its MIC is 0.016 µg/mL (≈ 0.0426 µM).

Question: What about the MIC [23] of the same molecule?
Answer: The MIC was 0.008 µg/mL (≈ 0.0213 µM).

Question: What about the MBC [24] of the same molecule?
Answer: The MBC was 256 µg/mL (≈ 682 µM).

Question: What about the MIC [25] of the same molecule?
Answer: The MIC was 0.125 µg/mL (≈ 0.333 µM).

Question: What about the MIC [26] of the same molecule?
Answer: Its MIC is 0.125 µg/mL (≈ 0.333 µM).

Question: What does the source list for COc1c(N2CC[N+]3(CN4C(C)=CC(C)=C(C(=O)O)C4=N3)C(C)C2)c(F)cc2c(=O)c(C(=O)O)cn(C3CC3)c12.[Cl-] (configuration not stated)?
Answer: MIC [1]: 8 µg/mL; MBC [2]: 16 µg/mL; MIC [3]: 2 µg/mL; MBC [4]: 2 µg/mL; MBC [5]: 32 µg/mL; MBC [6]: 0.5 µg/mL; MIC [27]: 1 µg/mL; Activity [28]: Non-Toxic; Ratio [29]: 2; MBC [8]: 16 µg/mL; MIC [9]: 8 µg/mL; MIC [10]: 4 µg/mL; MIC [11]: > 512 µg/mL; MIC [30]: 2 µg/mL; Ratio [31]: 4; MBC [12]: 16 µg/mL; log K [13]: -0.408; MIC [14]: 32 µg/mL; MBC [15]: 8 µg/mL; MBC [16]: 2 µg/mL; MIC [17]: 32 µg/mL; MBC [18]: 8 µg/mL; MIC [19]: 128 µg/mL; Activity [32]: Non-Toxic; MBC [21]: 256 µg/mL; MIC [22]: 2 µg/mL; MBC [33]: 2 µg/mL; MIC [23]: 0.5 µg/mL; MBC [24]: 256 µg/mL; MIC [25]: 8 µg/mL; MIC [26]: 8 µg/mL
